How the values were obtained:
human thrombin = human thrombin (Homo sapiens, UniProt P00734); assay: Determination of the inhibition constants (Ki) for thrombin; type: biochemical; conditions: human thrombin 100 pM, substrate S2238, pH 7.8, 37 degrees C., 60 min preincubation
Procedure: (§1) The inhibitors according to the invention have been tested according to various criteria to assess their efficacy, these preferably being the determination of the Ki value, of the IC50 value and of the partial thrombo-plastin time (PTT) in vivo and in vitro. To test the specificity, the IC50 values and Ki values with respect to various serine proteases, especially thrombin and trypsin, were measured. The stability of the substances according to the invention was determined by incubating a sample of the substance with a pure enzyme, preferably trypsin, chymotrypsin or papain, and with liver or intestinal homogenates, taking samples from the solutions at intervals of time, and preferably measuring by HPLC.
The inhibition constants (Ki) for the substances were determined by known enzyme kinetic methods. The human thrombin employed was determined to be 87% pure by means of active site titration. […] The inhibitor and enzyme were preincubated for 60 minutes, and the reaction was started by addition of the chromogenic substrate S2238. The kinetics were analyzed using the mathematical algorithm for tight binding, which with the aid of non-linear regression yielded Ki values (table) and the type of inhibition.

trypsin = biological target: T1, trypsin (Bos taurus, UniProt P00760); assay: Ki with respect to trypsin (specificity of the inhibitors); type: biochemical
T1 sequence (P00760 24-246): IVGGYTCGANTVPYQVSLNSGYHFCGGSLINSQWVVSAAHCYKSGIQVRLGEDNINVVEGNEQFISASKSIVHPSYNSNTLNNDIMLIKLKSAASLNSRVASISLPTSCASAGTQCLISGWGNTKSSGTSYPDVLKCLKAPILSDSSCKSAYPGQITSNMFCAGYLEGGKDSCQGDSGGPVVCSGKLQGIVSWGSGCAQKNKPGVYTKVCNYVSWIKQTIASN
Procedure: as §1
The specificity of the inhibitors was determined with thrombin and trypsin. The specificity is defined as the ratio of the Ki values for trypsin and thrombin (table).

[1] = Determination of the elimination half-lives t1/2 β, intravenous, rats; type: in vivo; conditions: rat, i.v., 5 mg/kg, plasma, calculated, second phase
Procedure: Determination of the Elimination Half-lives t1/2 β The thrombin inhibitors (2)-(5) in the table were administered intravenously to rats (5 in each group) at a dosage of 5 mg/kg. Blood samples were taken, and the time-dependent concentrations of thrombin inhibitors in the plasma were determined. Elimination takes place in two phases. The calculated elimination half-lives t1/2 β are compiled in it.

[2] = Determination of the subcutaneous absorption of substances (2) and (5), rabbits; type: in vivo; conditions: 2 mg/kg
Procedure: The substances were administered to rabbits subcutaneously in a dosage of 2 mg/kg. The maximum plasma concentration of (5) was reached after 5 minutes. The maximum plasma concentration of (2) was reached after 80 minutes.

Compound `COc1cc(C)c(S(=O)(=O)N[C@@H](CC(=O)O)C(=O)N[C@H](Cc2ccc(C(=N)N)cc2)C(=O)N2CCCCC2)c(C)c1C` [(5)] has a Ki (human thrombin) of 2.5 nM, a Ki (trypsin) of 312 nM and a half-life [1] of 19 min. The Tmax ([2]; rabbit, plasma, sc, read-out: time to maximum plasma concentration (converted)) was 5 min and the “duration of effective plasma level” value ([2]; s.c.) was 3 h.

— patent US5571844A, “Amidinophenylalanine derivatives, a process for their preparation, their use and compositions containing these as anticoagulants” (Behringwerke Aktiengesellschaft, priority 1993, dated 1996)
